Results taken from paper PMC9114115, “Property space mapping of Pseudomonas aeruginosa permeability to small molecules” (Scientific Reports, 2022).
Counter-ions that a name gives are not always drawn.

Assays:
P. aeruginosa PAO1 cells = assay: LC–MS quantification of intracellular accumulation, PAO1; conditions: 10-80 µM; for Concentration slopes of accumulation, PAO1_1 min: 1 min incubation; for Concentration slopes of accumulation, PAO1_40 min: 40 min incubation
Procedure: (§1) PAO1-Pore and PΔ3-Pore were grown at 37 °C overnight with shaking at 225 rpm in 50 mM MOPS-M9 (pH 7.2) Minimal Medium supplemented with 1% glycerol[42],[43].
(§2) The next day, cells were sub-cultured (1.5:100) in fresh MOPS-M9 medium and grown for 16 h. The cultures were then split into two flasks and one of them was induced with 0.1 mM IPTG. Cells incubated for additional 4 h until OD600 reached ~ 1.0 and harvested by centrifugation at 3,275xg for 20 min in RT, washed and concentrated 10X in the spent medium. Assays were performed in 96-well plates in a final volume of […]. Cells were incubated with 10, 20, 40, 80 µM of compounds and after 1- and 40-min incubation at RT, 100 µL cell aliquots were collected by vacuum filtration onto 1.0 µm Glass Fiber Type B filters. For no-cell controls, compounds were diluted to 10, 20, 40, 80 µM final concentration in the same medium, incubated for 1 min and 40 min and filtered onto the same plates. The cell loaded and cell-free filters were dried, removed from plates and placed into 100% methanol at -80 °C for at least 10 min. Filter-bound material was extracted by water bath sonication for 1 min. Cell and filter debris were separated by ultracentrifugation at 45,000 rpm (TLA55 rotor, Beckman) for 8 min at 16 °C and the pellet re-extracted with 80% methanol in water by sonication for 15 min followed by ultracentrifugation at the same conditions. Supernatants from two extractions were combined. For the compound quantification, 5 µL of solution was analyzed in triplicate.
(§3) Calibration curves for MS analyses of compounds were generated in the same experiment by mixing compound at increasing concentrations with the sonicated PAO1 cell extracts. […] Azithromycin was used as a positive control in all experiments.
(§4) Samples were processed in positive ion mode. An Eclipse plus C18 Rapid Resolution HD column (1.8 μm, 2.1 × 50 mm, Agilent, USA) was used for separation. The flow rate was 0.6 mL/min using the following gradient: 0 to 1 min (0- 20% ACN), 1 to 4 min (20- 80% ACN), 4 to 5.1 min (80–100% ACN), 5.1 to 6.30 (100% ACN). Solvents contained 0.1% formic acid to promote positive ion formation in the electrospray. […] Data were analyzed using Agilent Masshunter workstation quantitative analysis v. B.10 software.

[1] = test system: P. aeruginosa PAO1-Pore cells; assay: LC–MS quantification of intracellular accumulation, PAO1-Pore; conditions: 10-80 µM; for Concentration slopes of accumulation, PAO1-Pore_1 min: 1 min incubation; for Concentration slopes of accumulation, PAO1-Pore_40 min: 40 min incubation
Procedure: as §1, §2, §3, §4

P. aeruginosa PΔ3 cells = conditions: 10-80 µM; for Concentration slopes of accumulation, PΔ3_1 min: 1 min incubation; for Concentration slopes of accumulation, PΔ3_40 min: 40 min incubation
Procedure: as §1, §2, §3, §4

[2] = test system: P. aeruginosa PΔ3-Pore cells; assay: LC–MS quantification of intracellular accumulation, PΔ3-Pore; conditions: 10-80 µM; for Concentration slopes of accumulation, PΔ3-Pore_1 min: 1 min incubation; for Concentration slopes of accumulation, PΔ3-Pore_40min: 40 min incubation
Procedure: as §1, §2, §3, §4
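Further: slope of accumulation versus external concentration fitted as a line through zero.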

| SMILES | Concentration slopes of accumulation, PAO1_1 min (P. aeruginosa PAO1 cells) | Concentration slopes of accumulation, PAO1_40 min (P. aeruginosa PAO1 cells) | Concentration slopes of accumulation, PAO1-Pore_1 min [1] | Concentration slopes of accumulation, PAO1-Pore_40 min [1] | Concentration slopes of accumulation, PΔ3_1 min (P. aeruginosa PΔ3 cells) | Concentration slopes of accumulation, PΔ3_40 min (P. aeruginosa PΔ3 cells) | Concentration slopes of accumulation, PΔ3-Pore_1 min [2] | Concentration slopes of accumulation, PΔ3-Pore_40min [2] |
| --- | --- | --- | --- | --- | --- | --- | --- | --- |
| COc1ccc(CCN(C)CCCC(C#N)(c2ccc(OC)c(OC)c2)C(C)C)cc1OC (stereo not drawn) [OU-0000734, Verapamil HCl] | 12.96 | 13.17 | 16.77 | 15.63 | 12.95 | 12.00 | 17.77 | 18.38 |
| O=C1CC2(CCCC2)CC(=O)N1CCCCN1CCN(c2ncccn2)CC1 [OU-0000735, Buspirone HCl] | 6.08 | 7.21 | 7.76 | 7.56 | 6.98 | 6.60 | 9.57 | 9.56 |
| O=C(c1ccc(OCCN2CCCCC2)cc1)c1c(-c2ccc(O)cc2)sc2cc(O)ccc12 [OU-0000741, Raloxifene HCl] | 45.85 | 26.99 | 56.66 | 52.80 | 69.39 | 35.59 | 83.30 | 77.54 |
| COCCCC/C(=N\OCCN)c1ccc(C(F)(F)F)cc1 [OU-0000742, Fluvoxamine] | 3.55 | 4.45 | 6.04 | 6.15 | 4.15 | 4.97 | 6.28 | 6.18 |
| CC(CCc1ccccc1)NCC(O)c1ccc(O)c(C(N)=O)c1 (stereo not drawn) [OU-0000748, Labetalol HCl] | 15.94 | 14.89 | 21.98 | 21.99 | 17.87 | 22.85 | 23.35 | 22.27 |
| CC(Cc1ccc(O)cc1)NCC(O)c1cc(O)cc(O)c1 (stereo not drawn) [OU-0000755, Fenoterol HBr] | 1.15 | 1.72 | 1.22 | 2.13 | 2.24 | 1.99 | 2.02 | 2.24 |
| CCOC(=O)NC(=S)Nc1ccccc1NC(=S)NC(=O)OCC [OU-0000837, Thiophanate] | 3.24 | 3.72 | 3.05 | 1.80 | 3.05 | 1.80 | 14.84 | 13.42 |
| CNC(=C[N+](=O)[O-])NCCSCc1ccc(CN(C)C)o1 [OU-0000840, Ranitidine HCl] | 3.41 | 2.83 | 4.44 | 5.25 | 2.62 | 3.53 | 5.13 | 1.37 |
| NC(N)=Nc1nc(CSCCC(N)=NS(N)(=O)=O)cs1 [OU-0000841, Famotidine] | 4.64 | 5.28 | 3.94 | 2.86 | 4.40 | 4.38 | 6.27 | 4.45 |
| CC[C@H]1CN2CCc3cc(OC)c(OC)cc3[C@@H]2C[C@@H]1C[C@H]1NCCc2cc(OC)c(OC)cc21.Cl.Cl [OU-0032504, Emetine DIHCl] | 0.61 | 0.65 | 1.29 | 1.17 | 1.07 | 0.76 | 1.71 | 1.61 |
| CCN1CCCC1CNC(=O)c1cc(S(N)(=O)=O)ccc1OC.Cl (stereo not drawn) [OU-0032505, Sulpiride HCl] | – | – | 7.04 | 7.90 | 6.18 | 6.27 | 7.14 | 7.60 |
| COc1ccc2cc1Oc1ccc(cc1)C[C@H]1c3cc(c(OC)cc3CCN1C)Oc1c(OC)c(OC)cc3c1[C@H](C2)N(C)CC3 [OU-0032506, Tetrandrine] | 5.68 | 5.34 | 10.07 | 7.33 | 7.92 | 5.95 | 11.59 | 8.93 |
| CC(C)NCC(O)c1ccc(NS(C)(=O)=O)cc1 (stereo not drawn) [OU-0032507, Sotalol HCl] | 4.31 | 4.58 | 8.24 | 3.55 | 3.77 | 2.90 | 15.87 | 9.07 |
| O=C1NC[C@@H](CCC2CCCCC2)N[C@H]1Cc1cc(F)cc(F)c1 [OU-0032508] | – | – | 20.38 | 23.85 | 14.00 | 12.40 | 20.49 | 21.97 |
| CCCC[C@H]1CNC(=O)[C@H](Cc2cc(F)cc(F)c2)N1 [OU-0032509] | – | – | 23.40 | 20.61 | 14.12 | 18.21 | 27.36 | 24.02 |
